One experiment addresses T1, PRMT5/MEP50 complex (Homo sapiens, UniProt O14744).
T1 construct: purchased Reaction Biology Corporation
In words: PRMT5:MEP50 HotSpot Assay (full-length histone H2A substrate, plus and minus MTA). Type of experiment: biochemical. The following applies: IC50 + 2 μM MTA, in the presence of 2 μM MTA. The method, boiled down: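 Radiometric HotSpot format using recombinant full-length histone H2A as substrate, run with and without MTA. Reactions were stopped and spotted onto filter paper. Tritiated H2A was quantified by scintillation counting.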

The subject of experiment [1] is HCT116 homozygous MTAP knockout cells. The experiment can be described thus: Proliferation assay (CellTiter-Glo, 10 days) in HCT116 homozygous MTAP knockout cells. Type of experiment: cell-based. The note with it: CellTiter-Glo after 10 days of treatment, read-out: Proliferation IC50 (nM) HCT116 MTAP_KO. The method, boiled down: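 MTAP-null HCT116 clone made by CRISPR/Cas9 knockout of both alleles, tested beside parental cells. Cells dosed the day after seeding, split 1:10 on day 6 into fresh medium with the same compound level, and read on day 11 by CellTiter-Glo. IC50 taken after 10 days of exposure.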
A general note: In ATP-based viability assays light output follows the ATP content of the culture.

Experimental findings from US20240208912A1 (Mirati Therapeutics, Inc., priority 2021, published 2024) are described below.

Read-outs that look alike come from different tables or passages of the source.

T1 sequence (O14744 2-637 limits assumed): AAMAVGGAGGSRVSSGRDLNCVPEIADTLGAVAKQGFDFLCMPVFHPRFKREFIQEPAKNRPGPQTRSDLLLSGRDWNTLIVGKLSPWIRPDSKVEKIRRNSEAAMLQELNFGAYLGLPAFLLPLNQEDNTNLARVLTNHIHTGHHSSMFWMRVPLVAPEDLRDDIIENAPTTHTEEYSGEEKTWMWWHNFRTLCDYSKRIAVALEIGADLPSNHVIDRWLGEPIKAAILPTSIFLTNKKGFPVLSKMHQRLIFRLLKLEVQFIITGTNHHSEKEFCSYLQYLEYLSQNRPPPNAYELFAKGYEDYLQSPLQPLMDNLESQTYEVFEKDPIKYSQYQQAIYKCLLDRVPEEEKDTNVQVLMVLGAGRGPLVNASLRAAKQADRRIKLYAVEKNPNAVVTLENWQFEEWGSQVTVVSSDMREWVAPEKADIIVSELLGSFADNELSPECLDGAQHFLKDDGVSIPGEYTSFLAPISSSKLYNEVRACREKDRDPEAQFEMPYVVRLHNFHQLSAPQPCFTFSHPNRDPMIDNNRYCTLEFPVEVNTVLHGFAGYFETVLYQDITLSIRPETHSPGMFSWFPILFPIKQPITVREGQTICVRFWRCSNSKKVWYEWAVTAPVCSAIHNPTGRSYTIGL
T1 sequence (Q9BQA1 2-342 partner limits assumed): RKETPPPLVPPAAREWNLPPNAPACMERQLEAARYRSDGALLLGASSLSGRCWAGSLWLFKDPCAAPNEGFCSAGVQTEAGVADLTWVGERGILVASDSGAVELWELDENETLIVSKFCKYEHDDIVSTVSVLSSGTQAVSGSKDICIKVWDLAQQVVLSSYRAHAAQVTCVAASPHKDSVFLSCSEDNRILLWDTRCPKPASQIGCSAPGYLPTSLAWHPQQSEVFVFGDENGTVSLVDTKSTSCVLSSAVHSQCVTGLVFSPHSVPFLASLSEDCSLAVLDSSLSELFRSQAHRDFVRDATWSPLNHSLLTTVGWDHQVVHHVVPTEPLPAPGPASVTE

In the case of `Cn1ncc(-c2cc(Cl)c3c(=O)[nH]nc(CN)c3c2)c1-c1c(F)c(Cl)c2ccccc2c1C#N` (single isomer, unassigned) [Example 16-57, (P)-2-[4-[4-(aminomethyl)-8-chloro-1-oxo-2H-phthalazin-6-yl]-2-methyl-pyrazol-3-yl]-4-chloro-3-fluoro-naphthalene-1-carbonitrile], the figures for the IC50 (on PRMT5/MEP50 complex; in experiment [1]) were 253 nM and 339 nM, respectively.
For `Cn1ncc(-c2cc(Cl)c3c(=O)[nH]nc(CN)c3c2)c1-c1c(F)c(Cl)c2ccccc2c1C#N` (single isomer, unassigned) [Example 16-58, (M)-2-[4-[4-(aminomethyl)-8-chloro-1-oxo-2H-phthalazin-6-yl]-2-methyl-pyrazol-3-yl]-4-chloro-3-fluoro-naphthalene-1-carbonitrile], in that order: 4.61 nM and 15 nM.
With `Cc1c(F)c(-c2c(-c3cc(Cl)c4c(=O)[nH]nc(CN)c4c3)cnn2C)c(C#N)c2ccccc12` (single isomer, unassigned) [Example 16-59, (P)-2-[4-[4-(aminomethyl)-8-chloro-1-oxo-2H-phthalazin-6-yl]-2-methyl-pyrazol-3-yl]-3-fluoro-4-methyl-naphthalene-1-carbonitrile], the IC50 is 318 nM at PRMT5/MEP50 complex and 215 nM in experiment [1].
On to `Cc1c(F)c(-c2c(-c3cc(Cl)c4c(=O)[nH]nc(CN)c4c3)cnn2C)c(C#N)c2ccccc12` (single isomer, unassigned) [Example 16-60, (M)-2-[4-[4-(aminomethyl)-8-chloro-1-oxo-2H-phthalazin-6-yl]-2-methyl-pyrazol-3-yl]-3-fluoro-4-methyl-naphthalene-1-carbonitrile], for which the IC50 on PRMT5/MEP50 complex turned out to be 14.7 nM; in experiment [1], 39 nM.
For `Cn1ncc(-c2cc(Cl)c3c(=O)[nH]nc(CN)c3c2)c1-c1c(F)cc2ncc(Cl)cc2c1C#N` (single isomer, unassigned) [Example 16-61, (P)-6-[4-[4-(aminomethyl)-8-chloro-1-oxo-2H-phthalazin-6-yl]-2-methyl-pyrazol-3-yl]-3-chloro-7-fluoro-quinoline-5-carbonitrile], in that order: 217 nM and 80 nM.
In the case of `Cn1ncc(-c2cc(Cl)c3c(=O)[nH]nc(CN)c3c2)c1-c1c(F)cc2ncc(Cl)cc2c1C#N` (single isomer, unassigned) [Example 16-62, (M)-6-[4-[4-(aminomethyl)-8-chloro-1-oxo-2H-phthalazin-6-yl]-2-methyl-pyrazol-3-yl]-3-chloro-7-fluoro-quinoline-5-carbonitrile], the figures for the IC50 (on PRMT5/MEP50 complex; in experiment [1]) were 28.7 nM and 7 nM, respectively.
Take `C[C@H]1C[C@@H]1Oc1ccc(F)c(-c2c(-c3ccc4c(=O)[nH]nc(CN)c4c3)cnn2C)c1C#N` (single isomer, unassigned) [Example 16-67]: the IC50 is 269 nM on PRMT5/MEP50 complex and 241 nM in experiment [1].
With `C[C@H]1C[C@@H]1Oc1ccc(F)c(-c2c(-c3ccc4c(=O)[nH]nc(CN)c4c3)cnn2C)c1C#N` (single isomer, unassigned) [Example 16-68], the IC50 on PRMT5/MEP50 complex was 52.4 nM; in experiment [1] it was 41 nM.
For the molecule `Cn1ncc(-c2ccc3c(=O)[nH]nc(CN)c3c2)c1-c1c(C#N)ccc2c1COC2` (single isomer, unassigned) [Example 16-69, (M)-4-[4-[4-(aminomethyl)-1-oxo-2H-phthalazin-6-yl]-2-methyl-pyrazol-3-yl]-1,3-dihydroisobenzofuran-5-carbonitrile], the results for the IC50 (at PRMT5/MEP50 complex; in experiment [1]) were 6540 nM and 10200 nM, respectively.
For `Cn1ncc(-c2ccc3c(=O)[nH]nc(CN)c3c2)c1-c1c(C#N)ccc2c1COC2` (single isomer, unassigned) [Example 16-70, (P)-4-[4-[4-(aminomethyl)-1-oxo-2H-phthalazin-6-yl]-2-methyl-pyrazol-3-yl]-1,3-dihydroisobenzofuran-5-carbonitrile], in that order: 542 nM and 462 nM.
Consider `CCOc1cc(-c2cnn(C)c2-c2c(F)c(C)cc(OC3CC3)c2C#N)cc2c(CN)n[nH]c(=O)c12` (single isomer, unassigned) [Example 16-75, (P)-2-[4-[4-(aminomethyl)-8-ethoxy-1-oxo-2H-phthalazin-6-yl]-2-methyl-pyrazol-3-yl]-6-(cyclopropoxy)-3-fluoro-4-methyl-benzonitrile], for which the figures for the IC50 (at PRMT5/MEP50 complex; in experiment [1]) were 5030 nM and 420 nM, respectively.
As for `CCOc1cc(-c2cnn(C)c2-c2c(F)c(C)cc(OC3CC3)c2C#N)cc2c(CN)n[nH]c(=O)c12` (single isomer, unassigned) [Example 16-76, (M)-2-[4-[4-(aminomethyl)-8-ethoxy-1-oxo-2H-phthalazin-6-yl]-2-methyl-pyrazol-3-yl]-6-(cyclopropoxy)-3-fluoro-4-methyl-benzonitrile], the IC50 on PRMT5/MEP50 complex amounted to 111 nM; in experiment [1], 41 nM.
In the same order, the values of `CCOc1cc(-c2cnn(C)c2-c2c(F)c(Cl)cc(OC3CC3)c2C#N)cc2c(CN)n[nH]c(=O)c12` (single isomer, unassigned) [Example 16-77, (P)-2-[4-[4-(aminomethyl)-8-ethoxy-1-oxo-2H-phthalazin-6-yl]-2-methyl-pyrazol-3-yl]-4-chloro-6-(cyclopropoxy)-3-fluoro-benzonitrile] are 4100 nM and 264 nM.
In the case of `CCOc1cc(-c2cnn(C)c2-c2c(F)c(Cl)cc(OC3CC3)c2C#N)cc2c(CN)n[nH]c(=O)c12` (single isomer, unassigned) [Example 16-78, (M)-2-[4-[4-(aminomethyl)-8-ethoxy-1-oxo-2H-phthalazin-6-yl]-2-methyl-pyrazol-3-yl]-4-chloro-6-(cyclopropoxy)-3-fluoro-benzonitrile], the IC50 on PRMT5/MEP50 complex stood at 139 nM; in experiment [1] it was 17 nM.
Turning to `CCOc1cc(-c2cnn(C)c2-c2c(F)c(Cl)c3ccccc3c2C#N)cc2c(CN)n[nH]c(=O)c12` (single isomer, unassigned) [Example 16-79, (P)-2-[4-[4-(aminomethyl)-8-ethoxy-1-oxo-2H-phthalazin-6-yl]-2-methyl-pyrazol-3-yl]-4-chloro-3-fluoro-naphthalene-1-carbonitrile], the IC50 at PRMT5/MEP50 complex was found to be 8.25 nM; in experiment [1] it was 33 nM.
Consider `CCOc1cc(-c2cnn(C)c2-c2c(F)c(Cl)c3ccccc3c2C#N)cc2c(CN)n[nH]c(=O)c12` (single isomer, unassigned) [Example 16-80, (M)-2-[4-[4-(aminomethyl)-8-ethoxy-1-oxo-2H-phthalazin-6-yl]-2-methyl-pyrazol-3-yl]-4-chloro-3-fluoro-naphthalene-1-carbonitrile], for which the values for the IC50 (on PRMT5/MEP50 complex; in experiment [1]) were 415 nM and 13 nM, respectively.
Take `CCOc1cc(-c2cnn(C)c2-c2c(F)c(C)c3ccccc3c2C#N)cc2c(CN)n[nH]c(=O)c12` (single isomer, unassigned) [Example 16-81, (P)-2-[4-[4-(aminomethyl)-8-ethoxy-1-oxo-2H-phthalazin-6-yl]-2-methyl-pyrazol-3-yl]-3-fluoro-4-methyl-naphthalene-1-carbonitrile]: the IC50 at PRMT5/MEP50 complex was found to be 42.1 nM; in experiment [1] (Homo sapiens, HCT-116, 240 h), 9 nM.
Regarding `CCOc1cc(-c2cnn(C)c2-c2c(F)c(C)c3ccccc3c2C#N)cc2c(CN)n[nH]c(=O)c12` (single isomer, unassigned) [Example 16-82, (M)-2-[4-[4-(aminomethyl)-8-ethoxy-1-oxo-2H-phthalazin-6-yl]-2-methyl-pyrazol-3-yl]-3-fluoro-4-methyl-naphthalene-1-carbonitrile], the IC50 turned out to be 1180 nM on PRMT5/MEP50 complex and 14 nM in experiment [1].
